{"source": "patent US10736889B2", "about": "“Method of treating dyskinesia” (Rutgers, The State University of New Jersey, priority 2011, dated 2020)", "origin": "cited, not measured here", "key": {"[1]": {"biological_target": "δ-opioid receptors (Homo sapiens, UniProt P41143)", "sequence (P41143 whole entry)": "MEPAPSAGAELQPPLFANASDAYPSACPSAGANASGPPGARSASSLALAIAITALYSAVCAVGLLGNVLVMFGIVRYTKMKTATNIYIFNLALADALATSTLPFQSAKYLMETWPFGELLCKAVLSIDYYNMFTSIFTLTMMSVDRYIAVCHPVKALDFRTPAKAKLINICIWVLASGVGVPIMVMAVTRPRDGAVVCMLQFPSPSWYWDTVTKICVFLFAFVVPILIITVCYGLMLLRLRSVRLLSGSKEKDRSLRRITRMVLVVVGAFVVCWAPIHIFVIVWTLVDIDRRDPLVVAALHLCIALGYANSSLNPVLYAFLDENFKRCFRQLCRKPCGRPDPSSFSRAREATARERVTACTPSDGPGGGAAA", "settings": "for Ki: read-out: Ki for δ-opioid receptors"}, "[2]": {"biological_target": "κ-opioid receptors (Homo sapiens, UniProt P41145)", "sequence (P41145 whole entry)": "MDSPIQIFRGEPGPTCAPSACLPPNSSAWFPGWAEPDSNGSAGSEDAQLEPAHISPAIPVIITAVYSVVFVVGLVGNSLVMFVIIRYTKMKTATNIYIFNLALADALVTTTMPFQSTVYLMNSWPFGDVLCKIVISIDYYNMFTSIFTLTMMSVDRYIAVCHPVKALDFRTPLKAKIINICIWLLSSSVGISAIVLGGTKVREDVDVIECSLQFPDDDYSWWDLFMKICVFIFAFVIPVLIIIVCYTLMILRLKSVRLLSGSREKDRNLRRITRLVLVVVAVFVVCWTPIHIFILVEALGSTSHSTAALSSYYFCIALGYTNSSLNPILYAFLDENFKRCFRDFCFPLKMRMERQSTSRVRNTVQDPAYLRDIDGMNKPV", "settings": "for Ki: read-out: Ki for κ-opioid receptors; for IC50: read-out: IC50 for κ-opioid receptors"}, "[3]": {"test_system": "LID", "settings": "in vivo"}, "[4]": {"test_system": "LID", "settings": "variable effects in monkeys and humans"}, "[5]": {"biological_target": "μ-opioid receptors (Homo sapiens, UniProt P35372)", "sequence (P35372 whole entry)": "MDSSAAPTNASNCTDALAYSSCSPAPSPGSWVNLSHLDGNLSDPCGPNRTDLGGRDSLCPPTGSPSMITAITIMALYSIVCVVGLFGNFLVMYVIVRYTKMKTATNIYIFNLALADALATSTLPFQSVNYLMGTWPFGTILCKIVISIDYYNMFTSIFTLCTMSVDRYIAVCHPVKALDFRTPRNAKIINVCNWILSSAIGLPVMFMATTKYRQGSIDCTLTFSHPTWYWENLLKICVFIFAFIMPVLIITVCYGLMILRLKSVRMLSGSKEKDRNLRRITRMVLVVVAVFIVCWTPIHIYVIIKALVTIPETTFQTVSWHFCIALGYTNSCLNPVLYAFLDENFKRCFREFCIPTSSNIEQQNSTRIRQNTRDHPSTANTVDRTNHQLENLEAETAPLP", "settings": "for Ki: read-out: Ki for μ-opioid receptors"}, "[6]": {"test_system": "LID", "settings": "only drug available"}, "[7]": {"test_system": "6-hydroxydopamine-lesioned rat model"}, "[8]": {"test_system": "hemiparkinsonian marmoset monkeys", "settings": "lower doses"}, "[9]": {"settings": "compared with Nalbuphine itself"}}, "note": "Read-outs that look alike come from different tables or passages of the source.", "data": [{"molecule": "Oc1ccc2c(c1)[C@@]13CCCC[C@@]1(O)[C@@H](C2)N(CC1CCC1)CC3", "note": "[Butorphanol]", "values": [{"measurement": "Ki", "setting": "[1]", "value": "~12", "unit": "nM"}, {"measurement": "Ki", "setting": "[2]", "value": "~0.12", "unit": "nM"}]}, {"molecule": "COc1cccc2c1[C@]13CCN(CC4CC4)[C@H](C2)[C@]1(OC)CCC(=O)C3", "note": "[cyprodime]", "values": [{"measurement": "peak-dose LID", "setting": "[3]", "value": "significantly reduces"}]}, {"molecule": "O=C1CC[C@@]2(O)[C@H]3Cc4ccc(O)c5c4[C@@]2(CCN3CC2CC2)[C@H]1O5", "note": "[Naltrexone]", "values": [{"measurement": "LID", "setting": "[4]", "value": "no change, increases or decreases"}]}, {"molecule": "C=CCN1CC[C@]23c4c5ccc(OC)c4O[C@H]2[C@@H](O)C=C[C@H]3[C@H]1C5", "note": "[Nalodeine]", "values": [{"measurement": "Ki", "setting": "[1]", "value": "< 1000", "unit": "nM"}]}, {"molecule": "CNCC[C@@H](Oc1ccccc1C)c1ccccc1", "note": "[Atomoxetine]", "values": [{"measurement": "IC50", "setting": "[1]; read-out: IC50 for δ-opioid receptors", "value": "< 5000", "unit": "nM"}, {"measurement": "IC50", "setting": "[2]", "value": "~4380", "unit": "nM"}, {"measurement": "IC50", "setting": "[5]", "value": "~4190", "unit": "nM"}]}, {"molecule": "Oc1ccc2c3c1O[C@H]1c4oc5ccccc5c4C[C@@]4(O)[C@@H](C2)N(CC2CC2)CC[C@]314", "note": "[Naltriben]", "values": [{"measurement": "Ki", "setting": "[2]", "value": "~82.8", "unit": "nM"}, {"measurement": "Ki", "setting": "[5]", "value": "~19.8", "unit": "nM"}]}, {"molecule": "Cl.NC12CC3CC(CC(C3)C1)C2", "note": "[amantadine, 1-adamantanamine hydrochloride]", "values": [{"measurement": "LID", "setting": "[6]", "value": "modestly reduce LID"}]}, {"molecule": "N-allyl-normorphine [Nalorphine]", "values": [{"measurement": "Ki", "setting": "[1]", "value": "~6.33", "unit": "nM"}]}, {"molecule": "Oc1ccc2c3c1O[C@H]1c4[nH]c5c(c4C[C@@]4(O)[C@@H](C2)N(CC2CC2)CC[C@]314)C[C@@]1(O)[C@H]2Cc3ccc(O)c4c3[C@@]1(CCN2CC1CC1)[C@H]5O4", "note": "[nor-BNI]", "values": [{"measurement": "levodopa-induced hyperkinesias", "setting": "[7]", "value": "moderates"}]}, {"molecule": "Oc1ccc2c3c1O[C@H]1c4[nH]c5ccccc5c4C[C@@]4(O)[C@@H](C2)N(CC2CC2)CC[C@]314", "note": "[naltrindole]", "values": [{"measurement": "levodopa-induced rotations", "setting": "[8]", "value": "reduce levodopa-induced rotations"}]}, {"molecule": "O=C(CCCCCCCCC(=O)Oc1ccc2c3c1O[C@H]1[C@@H](O)CC[C@@]4(O)[C@@H](C2)N(CC2CCC2)CC[C@]314)Oc1ccc2c3c1O[C@H]1[C@@H](O)CC[C@@]4(O)[C@@H](C2)N(CC2CCC2)CC[C@]314", "note": "[sebacoyl di-Nalbuphine ester]", "values": [{"measurement": "bioavailability", "setting": "[9]", "value": "improved over that of Nalbuphine itself"}]}, {"molecule": "C=CCN1CC[C@]23c4c5ccc(O)c4O[C@H]2C(=O)CC[C@@]3(O)[C@H]1C5", "note": "[Naloxone]", "values": [{"measurement": "LID", "setting": "[4]", "value": "no change, increases or decreases"}]}, {"molecule": "C=CCN1CCC2(C)c3cc(O)ccc3CC1C2C", "note": "(stereo not shown) [Alazocine]", "values": [{"measurement": "Ki", "setting": "[1]", "value": "~15", "unit": "nM"}, {"measurement": "Ki", "setting": "[2]", "value": "~4.7", "unit": "nM"}, {"measurement": "Ki", "setting": "[5]", "value": "~3", "unit": "nM"}]}, {"molecule": "CC(C)=CCN1CC[C@@]2(C)c3cc(O)ccc3C[C@@H]1C2C", "note": "(stereo in doubt) [Pentazocine]", "values": [{"measurement": "Ki", "setting": "[2]", "value": "~2.2", "unit": "nM"}]}, {"molecule": "NC(=O)c1ccc2c(c1O)[C@]13CCN(CC4CC4)C(C2)[C@]1(O)CCC(=O)C3", "note": "[Samidorphan]", "values": [{"measurement": "Ki", "setting": "[1]", "value": "~2.6", "unit": "nM"}, {"measurement": "Ki", "setting": "[2]", "value": "~0.23", "unit": "nM"}, {"measurement": "Ki", "setting": "[5]", "value": "~0.052", "unit": "nM"}]}, {"molecule": "CCC12CCN(CC3(O)CC3)C(Cc3ccc(O)cc31)C2(C)C", "note": "(stereo not shown) [Bremazocine]", "values": [{"measurement": "Ki", "setting": "[1]", "value": "< 1000", "unit": "nM"}, {"measurement": "IC50", "setting": "[2]", "value": "~0.16", "unit": "nM"}]}]}
